Source: patent US11911628B2, “Electrostatic drug delivery” (NANO HESGARSAZAN SALAMAT ARYA INCUBATION CENTER FOR MEDICAL …, priority 2019, dated 2024)
Entries after “also recorded” stand apart in the source; their conditions may differ.

Tested on: MC4L2 mice tumor
Test: MC4L2 mice tumor treated with drug with or without electrostatic field, tumor followed by sonography
Type: in vivo
Details: for reduction in tumor volume: without electrostatic field
Protocol: Here, three injection periods of Cisplatin were carried out every 3 days for a group of mice having a MC4L2 mice tumor as an example of triple-positive breast cancer. About 20 mg/kg of Cisplatin was applied for a Control sample with a MC4L2 mice tumor without applying an electrostatic field. In each period, about 5 mg/kg of Cisplatin was applied for a sample mouse No. 1 with a MC4L2 mice tumor, and then followed by applying an electrostatic field with an intensity in a range of −60 V to −120 V according to exemplary method 100 or exemplary method 110, described hereinabove, utilizing a conductive patch similar to electrically conductive element 304 on mice skin near the MC4L2 tumor site, and applying direct current (DC) electrostatic field utilizing a Van de Graaff device.
All sonography images were taken after about 10 days of treatments, and all drug injections were done every about 3 days.

SMILES	tumor after treatment (sonography) (about 1 mg/kg Doxorubicin per period, then DC electrostatic field 60 V to 120 V via conductive patch, four periods every 3 days)	reduction in tumor volume (about 10 mg/kg Doxorubicin, sonography after about 10 days)	tumor after treatment (sonography) (about 5 mg/kg Cisplatin per period, then DC electrostatic field -60 V to -120 V via conductive patch, three periods every 3 days)	reduction in tumor volume (about 20 mg/kg Cisplatin, injections every 3 days, sonography)
COc1cccc2c1C(=O)c1c(O)c3c(c(O)c1C2=O)C[C@@](O)(C(=O)CO)C[C@@H]3O[C@H]1C[C@H](N)[C@H](O)[C@H](C)O1 [Doxorubicin]	no observable trace of tumor; also recorded: removed completely	about 75%		
N.N.[Cl][Pt][Cl] [Cisplatin]			no observable trace of tumor; also recorded: removed completely	about 60%
